Reference: ChEMBL document CHEMBL3507680, “University of Dundee, Gates Library screen for HepG2 cell viability”

Assay: Human HepG2 cell viability assay in 384 well format
Format: toxicity, cell-based
Set-up: dose 125 nL, time 70.5 hour; concentration not given beside the values
Conditions: HepG2 cells, read-out: Inhibition

SMILES | cytotoxicity at 70.5 h
OC(CN(Cc1ccccc1)Cc1ccccn1)c1cccs1 (stereo not drawn) | -11%
CCN(CC)C(=O)CN1CCCC1c1nc(C)c2c(n1)N(C)C(=O)CC2 (stereo not drawn) | -7.02%
COCC(=O)NC(C)Cc1cccc(OC)c1 (stereo not drawn) | 0.122%
OC1CCN(C2CCN(Cc3cccc(Cn4cccn4)c3)CC2)CC1 | 5.45%
CSCCC(=O)N1C[C@@H](C)[C@](O)(C(C)C)C1 | -9.47%
CCN(CC)c1ccc(CNC(=O)c2cccc(C)n2)cn1 | 11.5%
Fc1cnc(N2C[C@@H](OCC3CCOCC3)[C@H]3OCCC[C@H]32)nc1 | -7.94%
CCCNC(=O)Cn1nc(C(C)C)c2cnn(C(C)(C)C)c2c1=O | -0.765%
CC(C)CN1CCC(NC(=O)c2ccc(F)cc2F)CC1 | 0.0411%
CN(C)Cc1cccc(-c2cccnc2C(=O)NCc2ccco2)c1 | -4.14%
CCOCCC(=O)NC(c1noc(C)n1)c1ccccc1F (stereo not drawn) | -7.31%
Cc1nnc2n1CCN(C(=O)c1cn(-c3ccc(F)cc3)nn1)C2 | -0.105%
COc1cc(CNCc2ccco2)ccc1OCCO | -5.33%
Cc1noc(C(C)C)c1C(=O)NCCCN1CCC(C)CC1 | -13%
O=C([C@H]1C[C@@H]2[C@@H](C1)OCCN2CC1CC1)N1CCCC1 | -1.83%
CS(=O)(=O)c1ccc(CNC(=O)N2CCC(C(N)=O)CC2)cc1 | -2.35%
CN(Cc1ccco1)C(=O)NC1CCCN(c2ncccn2)C1 (stereo not drawn) | 8.71%
Cc1oc(C)c(C(=O)NCc2ccccn2)c1C | -6.3%
Cc1nc(CN2CCOCC3(CCN(c4ccccn4)C3)C2)cs1 (stereo not drawn) | -40.4%
O=C(CN1CCC(c2ccccc2)C1)NC(=O)NCC(F)(F)F (stereo not drawn) | 21.4%
CN(C)CCCNC(=O)C1CC(=O)N(c2n[nH]c3cccc(F)c23)C1 (stereo not drawn) | -26.2%

SMILES | cytotoxicity at 70.5 h
CC(C)CC(CCO)CNC(=O)N1CCOC2(CCCC2)C1 (stereo not drawn) | -1.95%
Cc1ccc(OCC(=O)Nc2ccc(S(C)(=O)=O)cc2)cc1C | 14%
CC(C1CCN(Cc2c(Cl)cncc2Cl)CC1)N1CCOCC1 (stereo not drawn) | -5.73%
COCCNc1cc(C2CCCNC2)ccn1 (stereo not drawn) | -7.3%
CCN(CC1CCCN(CCc2cccc(OC)c2)C1)C(=O)CN(C)C (stereo not drawn) | -0.489%
Cc1ncsc1CN1C[C@@H]2COC[C@]2(CNC(=O)c2ccccc2)C1 | -7.33%
CCN(CC)C1CCN(C(=O)Nc2cc(F)c(OC)c(F)c2)C1 (stereo not drawn) | 1.91%
O=C(NCc1cc(O)ncn1)C1COc2ccccc2C1 (stereo not drawn) | -8.68%
CCN(CC)Cc1cc(C(=O)N2CCCC(CC)(C(=O)O)C2)c(C)o1 (stereo not drawn) | -3.17%
CCN1CCC(CNCc2cc(OC)ccc2OC)C1 (stereo not drawn) | 5.64%
CC(C)n1ccnc1CN1CCOC(CC2CCCCC2)C1 (stereo not drawn) | 5.36%
CCOc1ccc(Cl)c(C(=O)N2CCN(c3ncccn3)CC2)n1 | -12.1%
COc1ccc(OCC(=O)NS(=O)(=O)c2ccc(Cl)s2)cc1 | -8.59%
COc1c(C)cnc(CN2CCn3c(nnc3C3CC3)C2)c1C | -2.97%
COCCN1CCN(C(=O)C2CC=CC2)Cc2cccnc21 | -12%
Cc1ccc(C(=O)N2CCCN(C)c3ccc(F)cc32)o1 | -17.9%
CCCNC(=O)CSc1nnc2[nH]c(=O)c3c(n12)CCCC3 | 12.2%
O=C(C1=CCCC1)N1C[C@H]2CCC[C@@]2(COCc2ccncc2)C1 | 3.16%
Cc1ccnn1CCC(=O)N1C[C@H]2CC[C@@H]1CN(CC(=O)N(C)C)C2 | -0.432%
CCCSCC(=O)N1C[C@H]2CC[C@@H]1CN(c1ncccn1)C2 | -14.1%
NC(=O)c1c[nH]nc1NC(=O)c1cccc(Cl)c1 | -3.76%

SMILES | cytotoxicity at 70.5 h
CCN1CCN(C(=O)NCc2cc[nH]n2)CC1 | -8.83%
Cc1ncc(-c2ccnc(N[C@@H](C)CO)n2)c(C2CCCCC2)n1 | 24.8%
CCSc1cc(C(=O)NCCC(=O)Nc2ccccn2)ccn1 | -3.16%
COCCC1(CO)CCCN(C(=O)c2cc(=O)[nH]c(=O)[nH]2)C1 (stereo not drawn) | -8.57%
Cn1nccc1NCc1cc2cc(F)ccc2o1 | 23.2%
CCN(C(=O)c1nc2c(s1)CCCN2C)C(C)C | -1.08%
CC(=O)N1CCC(Cc2cccc(-c3ccnn3C)n2)CC1 | -8.71%
CN(C)c1ccc(C(=O)N2CCCC2c2ccc(Cl)cc2)cc1 (stereo not drawn) | -4.22%
Cc1cc(C)nc(N2CC=C[C@H]2C(=O)NCc2ccc3c(c2)OCO3)n1 | -3.34%
CCc1nc(CCNC(=O)NC2CC2)sc1C | 5.49%
CCc1ccccc1OCCN(C)C(=O)CN1CCCC1 | -6.67%
CC(C)N(C)Cc1cc(=O)n2c(n1)CN(S(=O)(=O)C1CC1)CCC2 | -7.06%
CC(C)C(=O)N1CCC(c2nc(O)cc(-c3ccncc3)n2)CC1 | -15.8%
Cc1cccc(CN2CCc3ncnc(-c4ccsc4)c3CC2)n1 | -13.6%
CN(C1CCCC1)C(C)(C)C(=O)NCCS(C)(=O)=O | 2.52%
CCn1nc(C)c2nnn(CC(=O)Nc3cccc(F)c3)c(=O)c21 | -5.5%
c1ccc(OCCN2CCCCC2Cn2cncn2)cc1 (stereo not drawn) | 23.7%
CCCNC(=O)c1ccc(-c2ccco2)[nH]c1=O | -2.1%
CCNC(=O)CN1CCCN(C(=O)C2CCCc3[nH]ncc32)CC1 (stereo not drawn) | -8.68%
Cc1cccc(-c2ccc3nc(C4CCN(CC5CC5)CC4)nn3c2)c1 | 0.0128%
CSc1ccc(-n2ccnc2-c2cc3n(n2)CCNC3)cc1 | 25.5%

SMILES | cytotoxicity at 70.5 h
Cc1ccccc1C(=O)N1CCOC2(CNCCOC2)C1 (stereo not drawn) | -4.46%
COc1cccc(CNC2CCCOc3cc(C)ccc32)n1 (stereo not drawn) | -9.25%
Cc1nc(NCc2ccccn2)c2c(n1)c(C)nn2C | 5.97%
COc1ccc(C[C@H]2CN(c3cc(OC)ncn3)CC[C@H]2OC)cc1 | 11.6%
COc1ccccc1CC(C)CC(=O)NC(C)C (stereo not drawn) | 0.743%
Cc1cc(C(=O)NCc2ccc(F)cc2)c2c(C3CCNC3)noc2n1 (stereo not drawn) | -7.85%
CC(C)c1ncncc1C(=O)NCCN1CCCC1 | 5.71%
CCC(CNC(=O)c1cc(OC)ccc1Br)N1CCc2ccccc2C1 (stereo not drawn) | 7.55%
CN(C)CC(=O)N1CCC2(CC1)Cc1ccccc1CN(C)C2=O | 23.3%
CC(C(=O)N1CCN(c2ccc(F)cc2)CC1)n1cc(Br)cn1 (stereo not drawn) | -8.98%
Fc1cccc(CNCC2Cn3nncc3CO2)c1 (stereo not drawn) | -7.02%
Cc1ccc(O)c(C(=O)N2C[C@@H](C(=O)O)[C@H](c3ccccc3)C2)c1 | 0.313%
CCn1cnnc1CNC(=O)N1CCCC1 | 5.61%
Cn1c(CN2CCCCC2)nnc1C1CCCN(C(=O)CCC(N)=O)C1 (stereo not drawn) | -9%
CCn1ccnc1CN1CCN(Cc2ccc(C)o2)[C@@H]2CS(=O)(=O)C[C@@H]21 | -4.31%
CCc1nc(CN2CCCC(N(C)Cc3nc(C)c(C)o3)C2)no1 (stereo not drawn) | -74.1%
COCCC1(C(=O)O)CCCN(CCc2ccccc2)C1 (stereo not drawn) | -7.32%
Cc1nc(C)n(CC2CCCN(CCC(=O)N3CCOCC3)C2)n1 (stereo not drawn) | -4.61%
Cc1cc(NS(=O)(=O)c2cnc3onc(C)c3c2)no1 | 0.112%
O=C(c1cccc(-n2cccn2)c1)N1CCCOC(CN2CCCC2)C1 (stereo not drawn) | 0.244%
